Data set [1] relates to Mycosphaerella Arachidis(Cercospora Arachidicola). As to the kind of experiment: Mycosphaerella arachidis (Cercospora arachidicola) / liquid culture (early leaf spot). In kind it is cell-based. As to conditions: PDB potato dextrose broth, 24° C., 4-5 days after application, read-out: disease control (inhibition of growth, photometrically). An outline of the steps: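 Cryo-stored conidia in potato dextrose broth were added to compound in DMSO in microtiter plates. After incubation at 24 °C, growth inhibition was measured photometrically 4-5 days after application.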

The subject of data set [2] is Mycosphaerella Graminicola(Septoria Tritici). The experiment in a line: Mycosphaerella graminicola (Septoria tritici) / liquid culture (Septoria blotch). The data set is classed as cell-based. The note with it: Zymoseptoria tritici, PDB potato dextrose broth, 24° C., 4-5 days after application, read-out: disease control (inhibition of growth, photometrically). An outline of the steps:
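Cryostored conidia mixed into potato dextrose broth and added to compound dispensed from DMSO solution. Incubation at 24 °C; growth inhibition read photometrically 4-5 days after application.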

Data set [3] has as its system Thanatephorus Cucumeris(Rhizoctonia Solani). The experiment in a line: Thanatephorus cucumeris (Rhizoctonia solani) / liquid culture (foot rot, damping-off). In kind it is cell-based. As to conditions: PDB potato dextrose broth, 24° C., 3-4 days after application, read-out: disease control (inhibition of growth, photometrically). The procedure:
16 Thanatephorus Cucumeris(Rhizoctonia Solani)/Liquid Culture (Foot Rot, Damping-Off) Mycelia fragments of a newly grown liquid culture of the fungus were directly mixed into nutrient broth (PDB potato dextrose broth). After placing a DMSO solution of the test compounds into a 96-well microtiter plate at an application rate of 200 ppm, the nutrient broth containing the fungal material was added. The test plates were incubated at 24° C. and the inhibition of growth was determined photometrically 3-4 days after application.

Data set [4] has as its system Puccinia Recondita f. sp. Tritici. The experiment in a line: Puccinia recondita f. sp. tritici / wheat / leaf disc preventative (brown rust). In kind it is in vivo. As to conditions: foliar, wheat leaf segments cv Kanzler, inoculated 1 day after application, assessed 7-9 days after application, read-out: disease control. On the procedure: 3 Puccinia Recondita f. sp. Tritici/Wheat/Leaf Disc Preventative (Brown Rust) Wheat leaf segments cultivated variety (cv) Kanzler were placed on agar in 24-well plates and sprayed with formulated test compound diluted in water. The leaf disks were inoculated with a spore suspension of the fungus 1 day after application. The inoculated leaf segments were incubated at 19° C. and 75% relative humidity under a light regime of 12/12 h (light/dark) in a climate cabinet and the activity of a compound was assessed as percent disease control compared to untreated when an appropriate level of disease damage appears in untreated check leaf segments (7-9 days after application).

Data set [5] relates to Monographella Nivalis(Microdochium Nivale). As to the kind of experiment: Monographella nivalis (Microdochium nivale) / liquid culture (foot rot cereals). The data set is classed as cell-based. As to conditions: PDB potato dextrose broth, 24° C., 4-5 days after application, read-out: disease control (inhibition of growth, photometrically). A digest of the protocol:
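Conidia from cryogenic storage mixed into potato dextrose broth, added to compound pre-dispensed from DMSO solution. Incubated at 24° C.; growth inhibition read photometrically 4-5 days after application.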

The test system of a further data set is Pythium Ultimum. The experiment in a line: Pythium ultimum / liquid culture (seedling damping off). In kind it is cell-based. The note with it: Globisporangium ultimum, potato dextrose broth, 24° C., 2-3 days after application, read-out: disease control (inhibition of growth, photometrically).
Data set [6] deals with Glomerella Lagenarium(Colletotrichum Ladenarium). As to the kind of experiment: Glomerella lagenarium (Colletotrichum lagenarium) / liquid culture (anthracnose). The data set is classed as cell-based. As to conditions: PDB potato dextrose broth, 24° C., 3-4 days after application, read-out: disease control (inhibition of growth, photometrically). A digest of the protocol:
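Cryostored conidia were suspended in potato dextrose broth and added to compound in DMSO. Cultures were incubated at 24 °C. Growth inhibition was measured photometrically 3–4 days after application.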

For another data set, the system named is Gaeumannomyces Graminis. As to the kind of experiment: Gaeumannomyces graminis / liquid culture (take-all of cereals). The data set is classed as cell-based. As to conditions: PDB potato dextrose broth, 24° C., 4-5 days after application, read-out: disease control (inhibition of growth, photometrically). An outline of the steps: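 Mycelial fragments from cryogenic storage mixed into potato dextrose broth and added to test compound in DMSO. Incubated at 24° C; growth inhibition read photometrically 4-5 days after application.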

The test system of the next data set is Plasmopara Viticola. The experiment in a line: whole plant or invertebrate. The data set is classed as in vivo. The note with it: foliar, read-out: disease control.
The next data set relates to Fusarium Culmorum. As to the kind of experiment: microbe, parasite or virus in culture. The data set is classed as cell-based. The note with it: read-out: disease control (inhibition of growth, photometrically).
A further data set deals with Sclerotinia Sclerotiorum. As to the kind of experiment: Sclerotinia sclerotiorum / liquid culture (cottony rot). The note with it: PDB potato dextrose broth, 24° C., 3-4 days after application, read-out: disease control (inhibition of growth, visually). In kind it is cell-based. A digest of the protocol: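 Mycelial fragments from fresh liquid culture in potato dextrose broth added to test compounds in DMSO. Incubated at 24° C; growth inhibition scored visually 3-4 days after application.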

In data set [7] the test system is Botryotinia Fuckeliana(Botrytis Cinerea). As to the kind of experiment: Botryotinia fuckeliana (Botrytis cinerea) / liquid culture (gray mould). In kind it is cell-based. The note with it: Vogels broth, 24° C., 3-4 days after application, read-out: disease control (inhibition of growth, photometrically). The procedure: 9 Botryotinia Fuckeliana(Botrytis Cinerea)/Liquid Culture (Gray Mould) Conidia of the fungus from cryogenic storage were directly mixed into nutrient broth (Vogels broth). After placing a DMSO solution of test compound into a 96-well microtiter plate, the nutrient broth containing the fungal spores was added. The test plates were incubated at 24° C. and the inhibition of growth was determined photometrically 3-4 days after application.

Regarding `Cc1cc(-c2cc3c(cc2Cl)COB3O)c(C)s1` [Compound 90], the inhibition at 20 ppm (in [1]; in data set [2]; in [3]; in [5]; with Pythium Ultimum; in data set [6]) was not below 80% in each case. Also, the inhibition at 20 ppm with Gaeumannomyces Graminis is not below 80%. In addition, in data set [4], the pest or weed control at 200 ppm was not below 80%.
`Cc1nc(C)c(-c2cc3c(cc2Cl)COB3O)s1` [Compound 1] returned a melting point of 155 to 160 °C. In data set [2], the inhibition at 20 ppm was not below 80%. Besides, the pest or weed control at 200 ppm in [4] was not below 80%. The inhibition at 20 ppm in data set [5] is not below 80%. Moreover, the pest or weed control at 200 ppm in the data set on Plasmopara Viticola was not below 80%. Moreover, the inhibition at 20 ppm in the data set with Pythium Ultimum was not below 80%. Also, the inhibition at 20 ppm with Gaeumannomyces Graminis is not below 80%. Moreover, the inhibition at 20 ppm in the data set with Fusarium Culmorum was not below 80%.
Turning to `OB1OCc2cc(F)c(-c3ccsc3)cc21` [Compound 12, 5-fluoro-1-hydroxy-6-(3-thienyl)-3H-2,1-benzoxaborole], the inhibition at 20 ppm (in data set [1]; in [2]; in data set [3]; in the data set on Sclerotinia Sclerotiorum; in [7]; in [5]) was not below 80% throughout. For the same compound, the inhibition at 20 ppm in the data set with Pythium Ultimum, in the data set with Gaeumannomyces Graminis and in the data set with Fusarium Culmorum was not below 80% throughout. Besides, the pest or weed control at 200 ppm (in data set [4]; with Plasmopara Viticola) was not below 80% in each case.
On to `OB1OCc2cc(Cl)c(-c3ncon3)cc21` [Compound 96], for which the melting point lay in the range of 180 to 203 °C. Moreover, in [1], the inhibition at 20 ppm is not below 80%. Besides, the inhibition at 20 ppm in data set [2] was not below 80%. Further, the inhibition at 20 ppm in [3] is not below 80%. Besides, the inhibition at 20 ppm in the data set with Sclerotinia Sclerotiorum was not below 80%. Further, the inhibition at 20 ppm in [7] was not below 80%. Also, the pest or weed control at 200 ppm in data set [4] is not below 80%. In addition, in [5], the inhibition at 20 ppm is not below 80%. The inhibition at 20 ppm in the data set with Pythium Ultimum is not below 80%. Moreover, the inhibition at 20 ppm in [6] is not below 80%. The inhibition at 20 ppm with Gaeumannomyces Graminis is not below 80%. Besides, in the data set with Fusarium Culmorum, the inhibition at 20 ppm was not below 80%.
For `Cc1cc(-c2cc3c(cc2Cl)COB3O)c(C#N)o1` [Compound 66], the pest or weed control at 200 ppm (in data set [4]; in the data set with Plasmopara Viticola) was not below 80% throughout. For the same compound, the inhibition at 20 ppm with Pythium Ultimum and with Gaeumannomyces Graminis was not below 80% throughout.
As to `COc1nccc(-c2cc3c(cc2Cl)COB3O)c1Cl` [Compound 73], the inhibition at 20 ppm (in data set [1]; in data set [2]; in [3]; in the data set with Sclerotinia Sclerotiorum; in data set [7]; in data set [5]) was not below 80% throughout. For the same compound, the inhibition at 20 ppm (in the data set with Pythium Ultimum; in [6]; in the data set with Gaeumannomyces Graminis; with Fusarium Culmorum) was not below 80% each time. In addition, the pest or weed control at 200 ppm (in data set [4]; with Plasmopara Viticola) was not below 80% throughout.
As to `Cc1ccc(-c2cc3c(cc2Cl)COB3O)s1` [Compound 38], the inhibition at 20 ppm (in data set [1]; in [2]; in [3]; in the data set with Sclerotinia Sclerotiorum; in [7]; in data set [5]) was not below 80% throughout. Moreover, the inhibition at 20 ppm (with Pythium Ultimum; in data set [6]; in the data set on Gaeumannomyces Graminis; with Fusarium Culmorum) was not below 80% throughout. The pest or weed control at 200 ppm (in [4]; with Plasmopara Viticola) was not below 80% each time.
`CO/N=C/c1ccc(-c2cc3c(cc2F)COB3O)o1` [Compound 28]: the melting point fell in the range of 125 to 140 °C. Besides, the inhibition at 20 ppm in data set [2] is not below 80%. The pest or weed control at 200 ppm in data set [4] was not below 80%. The inhibition at 20 ppm in the data set on Pythium Ultimum was not below 80%. The inhibition at 20 ppm in data set [6] was not below 80%.

The term inhibition denotes the relative decrease from the control value, in per cent. As a reminder, the melting point is the temperature of the solid-liquid transition.
